Earlier results on 1 compound are cited in US20160346267A1, “Pharmaceutical Composition Comprising Apixaban” (SANDOZ AG, priority 2014, published 2016).

Take `COc1ccc(-n2nc(C(N)=O)c3c2C(=O)N(c2ccc(N4CCCCC4=O)cc2)CC3)cc1` [Apixaban, 1-(4-methoxyphenyl)-7-oxo-6-(4-(2-oxopiperidin-1-yl)phenyl)-4,5,6,7-tetrahydro-1H-pyrazolo[3,4-c]pyridine-3-carboxamide]: the solubility entry is “poorly soluble”.
